Here are results for 36 compounds from ChEMBL document CHEMBL2311451, “Discovery of a selective M₄ positive allosteric modulator based on the 3-amino-thieno[2,3-b]pyridine-2-carboxamide scaffold: development of ML253, a potent and brain penetrant compound that is active in a preclinical model of schizophrenia” (Bioorg Med Chem Lett, 2013).

In assay [1] the target is T1, Muscarinic acetylcholine receptor M4 (Homo sapiens) (UniProt P08173).
T1 sequence (whole entry): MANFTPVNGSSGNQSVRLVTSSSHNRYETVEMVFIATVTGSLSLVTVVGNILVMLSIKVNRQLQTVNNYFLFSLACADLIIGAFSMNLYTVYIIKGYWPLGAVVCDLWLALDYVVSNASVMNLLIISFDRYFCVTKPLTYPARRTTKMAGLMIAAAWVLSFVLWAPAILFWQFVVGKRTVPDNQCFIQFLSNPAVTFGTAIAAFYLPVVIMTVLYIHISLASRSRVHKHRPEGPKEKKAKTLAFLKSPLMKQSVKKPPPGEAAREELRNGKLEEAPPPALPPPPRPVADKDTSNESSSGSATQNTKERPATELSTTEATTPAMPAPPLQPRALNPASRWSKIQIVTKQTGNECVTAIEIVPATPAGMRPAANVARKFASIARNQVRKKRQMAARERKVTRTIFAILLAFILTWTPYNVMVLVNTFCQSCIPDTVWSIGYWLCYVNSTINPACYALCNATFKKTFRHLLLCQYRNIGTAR
Briefly: Positive allosteric modulation of human muscarinic M4 receptor expressed in CHO-K1 cells assessed as leftward shift in acetylcholine response treated for 144 secs prior to acetylcholine addition measured for 5 mins by Fluo-4-AM based calcium mobilization assay relative to control. Format: functional, cell-based.

Assay [2] addresses T2, Muscarinic acetylcholine receptor M4 (Homo sapiens, UniProt P08173).
T2 sequence (P08173 whole entry): T1 sequence (whole entry)
Description: Positive allosteric modulation of human muscarinic M4 receptor expressed in CHO-K1 cells assessed as leftward shift in acetylcholine response treated for 144 secs prior to acetylcholine addition measured for 5 mins by Fluo-4-AM based calcium mobilization assay. The class given is functional, cell-based. (Calcium assays in cells follow changes in intracellular calcium, usually with a dye or a luminescent sensor.)

Assay [3] has as its target T3, Muscarinic acetylcholine receptor M4 (Rattus norvegicus, UniProt P08485).
T3 sequence (P08485 whole entry): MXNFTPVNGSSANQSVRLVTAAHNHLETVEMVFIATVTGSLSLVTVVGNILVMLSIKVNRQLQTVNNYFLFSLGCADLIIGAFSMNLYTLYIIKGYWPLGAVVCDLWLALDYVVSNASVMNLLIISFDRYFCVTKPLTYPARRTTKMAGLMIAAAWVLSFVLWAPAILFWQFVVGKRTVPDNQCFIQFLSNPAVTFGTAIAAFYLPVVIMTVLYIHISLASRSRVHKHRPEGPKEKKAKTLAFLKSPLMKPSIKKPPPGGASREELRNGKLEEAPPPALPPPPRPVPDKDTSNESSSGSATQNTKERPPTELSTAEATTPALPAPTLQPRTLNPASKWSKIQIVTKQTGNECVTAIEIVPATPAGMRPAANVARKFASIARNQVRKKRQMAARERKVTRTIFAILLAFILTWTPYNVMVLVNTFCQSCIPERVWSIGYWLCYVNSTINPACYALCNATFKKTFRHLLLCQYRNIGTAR
Description: Positive allosteric modulation of rat muscarinic M4 receptor assessed as acetylcholine response.

On to `Cc1nc2sc(C(=O)NCc3ccc(F)c(F)c3)c(N)c2c(C)c1Cl`, for which, in assay [1], the %max is 42%. For the same compound, in assay [2] (read-out: EC50), the EC50 came out at 160 nM.

For the compound `Cc1cc(OCc2ccncc2)nc2sc(C(=O)NCc3cccc(F)c3F)c(N)c12`, the EC50 in assay [3] is 900 nM; in assay [2] (read-out: EC50), 500 nM.

Take `Cc1nc2sc(C(=O)NCc3ccc4c(c3)OCO4)c(N)c2c(C)c1Cl`: the %max in assay [1] was 71.7%. For the same compound, the EC50 in assay [2] (read-out: EC50) was determined as 80 nM.

For the compound `CCOc1ccc(NC(=O)c2sc3nc(C)c(Cl)c(C)c3c2N)cc1`, the EC50 in assay [2] (read-out: EC50) is greater than 30000 nM.

`Cc1cc(CNC(=O)c2sc3nc(C)c(Cl)c(C)c3c2N)ccn1`: in assay [1], the %max came out at 75.8%. The EC50 in assay [2] (read-out: EC50) was 61 nM.

`Cc1nc2sc(C(=O)NCCC3CCCN3C)c(N)c2c(C)c1Cl` (centres undefined): the %max in assay [1] stood at 38%. In assay [2] (read-out: EC50), the EC50 was found to be 926 nM.

On to `COCCCNC(=O)c1sc2nc(C)c(Cl)c(C)c2c1N`, for which the %max in assay [1] is 85.7%. The EC50 in assay [2] (read-out: EC50) is 418 nM.

For the compound `Cc1nc2sc(C(=O)NC(C)C)c(N)c2c(C)c1Cl`, the %max in assay [1] came out at 77.3%. Further, the EC50 in assay [2] (read-out: EC50) worked out at 147 nM.

For `Cc1nc2sc(C(=O)NCc3ncccn3)c(N)c2c(C)c1Cl`, the %max in assay [1] was determined as 51%. Further, the EC50 in assay [2] (read-out: EC50) was found to be 810 nM.

As for `Cc1nc2sc(C(=O)NCc3ccccn3)c(N)c2c(C)c1Cl`, the %max in assay [1] is 74.1%. In addition, the EC50 in assay [2] (read-out: EC50) was 356 nM.

Turning to `COc1ccc(NC(=O)c2sc3nc(C)c(Cl)c(C)c3c2N)cc1`, the %max in assay [1] was 30.7%. Further, in assay [2] (read-out: EC50), the EC50 is greater than 10000 nM.

Consider `Cc1nc2sc(C(=O)NCc3ccccc3N(C)C)c(N)c2c(C)c1Cl`, for which the EC50 in assay [2] (read-out: EC50) is greater than 30000 nM.

As for `Cc1nc2sc(C(=O)NCc3nccs3)c(N)c2c(C)c1Cl`, the %max in assay [1] is 65.1%. In addition, the EC50 in assay [2] (read-out: EC50) was found to be 249 nM.

On to `Cc1nc2sc(C(=O)NCc3cccnc3)c(N)c2c(C)c1Cl`, for which the %max in assay [1] stood at 84.9%. The EC50 in assay [2] (read-out: EC50) worked out at 208 nM.

For the compound `Cc1nc2sc(C(=O)NC(C)c3ccccn3)c(N)c2c(C)c1Cl` (centres undefined), the %max in assay [1] was 51.1%. Moreover, the EC50 in assay [2] (read-out: EC50) stood at 1370 nM.

Consider `COc1ccc(CNC(=O)c2sc3nc(C)c(Cl)c(C)c3c2N)cc1`, for which the %max in assay [1] worked out at 83.6%. In addition, the EC50 in assay [2] (read-out: EC50) is 107 nM.

Turning to `Cc1nc2sc(C(=O)NC(C)c3cccnc3)c(N)c2c(C)c1Cl` (centres undefined), the %max in assay [1] stood at 57.3%. Further, the EC50 in assay [2] (read-out: EC50) amounted to 669 nM.

On to `Cc1nc2sc(C(=O)NCC3CCCCC3)c(N)c2c(C)c1Cl`, for which the %max in assay [1] was 69.7%. Also, in assay [2] (read-out: EC50), the EC50 turned out to be 1410 nM.

With `Cc1nc2sc(C(=O)NCc3ccc(Cl)cc3)c(N)c2c(C)c1Cl`, the %max in assay [1] came to 33.2%. Moreover, the EC50 in assay [2] (read-out: EC50) came out at 180 nM.

Turning to `Cc1nc2sc(C(=O)NCCc3cccnc3)c(N)c2c(C)c1Cl`, the EC50 in assay [2] (read-out: pEC50 (converted)) was greater than 30200 nM.

Regarding `Cc1nc2sc(C(=O)NCc3cccc(F)c3F)c(N)c2c(C)c1Cl`, in assay [1], the %max worked out at 79.5%. Also, in assay [2] (read-out: EC50), the EC50 was determined as 124 nM.

Turning to `Cc1nc2sc(C(=O)NCc3cnccn3)c(N)c2c(C)c1Cl`, the %max in assay [1] turned out to be 83.1%. In assay [2] (read-out: EC50), the EC50 stood at 294 nM.

For `Cc1nc2sc(C(=O)NC3CCCCC3)c(N)c2c(C)c1Cl`, the %max in assay [1] was 41.4%. Also, in assay [2] (read-out: EC50), the EC50 was determined as 226 nM.

Take `Cc1nc2sc(C(=O)NC(C)c3ccncc3)c(N)c2c(C)c1Cl` (centres undefined): the %max in assay [1] is 64.1%. In addition, the EC50 in assay [2] (read-out: EC50) worked out at 600 nM.

As to `Cc1nc2sc(C(=O)NC3CCOC3)c(N)c2c(C)c1Cl` (centres undefined), in assay [1], the %max was found to be 92.2%. In assay [2] (read-out: EC50), the EC50 turned out to be 52 nM.

For `Cc1nc2sc(C(=O)NCc3ccncn3)c(N)c2c(C)c1Cl`, the %max in assay [1] is 78.5%. In assay [2] (read-out: EC50), the EC50 is 271 nM.

For `Cc1nc2sc(C(=O)NCc3ccnnc3)c(N)c2c(C)c1Cl`, the %max in assay [1] came to 74.5%. Also, in assay [2] (read-out: EC50), the EC50 stood at 326 nM.

Turning to `Cc1nc2sc(C(=O)NCCc3ccccn3)c(N)c2c(C)c1Cl`, in assay [1], the %max worked out at 61.7%. The EC50 in assay [2] (read-out: EC50) was determined as 844 nM.

Take `Cc1nc2sc(C(=O)NCc3ccccc3Cl)c(N)c2c(C)c1Cl`: in assay [1], the %max was found to be 32.4%. For the same compound, in assay [2] (read-out: EC50), the EC50 was found to be 160 nM.

With `Cc1nc2sc(C(=O)NCc3ccc(C(F)(F)F)cc3)c(N)c2c(C)c1Cl`, in assay [1], the %max is 33.6%. The EC50 in assay [2] (read-out: EC50) came to 1750 nM.

For `Cc1nc2sc(C(=O)NC(C)(C)C)c(N)c2c(C)c1Cl`, the %max in assay [1] was 68.3%. Also, in assay [2] (read-out: EC50), the EC50 came out at 307 nM.

As for `Cc1nc2sc(C(=O)NCCc3ccncc3)c(N)c2c(C)c1Cl`, the %max in assay [1] stood at 74.5%. For the same compound, the EC50 in assay [2] (read-out: EC50) came to 128 nM.

Consider `Cc1nc2sc(C(=O)NCc3ccccc3)c(N)c2c(C)c1Cl`, for which the %max in assay [1] was determined as 81%. In addition, the EC50 in assay [2] (read-out: EC50) was 108 nM.

Turning to `Cc1nc2sc(C(=O)NC3COC3)c(N)c2c(C)c1Cl`, in assay [1], the %max is 69.9%. In addition, in assay [2] (read-out: EC50), the EC50 was found to be 2010 nM.

For `Cc1ccc(CNC(=O)c2sc3nc(C)c(Cl)c(C)c3c2N)cc1`, the %max in assay [1] turned out to be 46.8%. Moreover, in assay [2] (read-out: EC50), the EC50 was determined as 104 nM.

On to `Cc1nc2sc(C(=O)NC3CCOCC3)c(N)c2c(C)c1Cl`, for which the %max in assay [1] is 78.6%. In addition, the EC50 in assay [2] (read-out: EC50) was 289 nM.
